The text below walks through data of US7429673B2, “TRPV1 agonists, formulations containing them and uses thereof” (priority 2004, dated 2008).

The target of one test is T1, human TRPV1 (Homo sapiens, UniProt Q8NER1).
T1 construct: expressed in transfected cells; host or cells: HEK-293
Kind of test: intracellular calcium in HEK-293 cells overexpressing human TRPV1. In kind it is cell-based. The following applies: 4 μM ionomycin as maximum reference. For orientation: Calcium flux is commonly read through the fluorescence of an indicator in the cells.

The next test has as its system Sprague Dawley rats. Kind of test: in vivo test of induced urinary incontinence (partial urethral obstruction). The arrangement: species or system rat. The following applies: operated rats; for N^o of minctions per hour: 8 weeks after urethral obstruction, instilled in the bladder in ethanol at 50 nM for 30 min; for number of minctions per hour, result in words: instilled in the bladder at 50 nM for 30 min. How it is done:
The activity of the compound of example 2 was also evaluated in rats through the in vivo test of induced urinary incontinence.
Sprague Dawley rats (250±10 g) were anaesthetized with chloral hydrate. The urinary bladder was opened through an incision along the abdomen median line, and the adipose tissue surrounding the urethra and ureters was removed. The proximal urethra was then tied up with non-absorbable surgery thread to create partial urethral obstruction.
On the treatment day, the compound of example 2, the compound prepared according to Appendino et al. and resiniferotoxin as the reference standard were solubilised in ethanol and instilled in the bladder at the concentration of 50 nM. The instillation lasted 30 min: during this period the infusion pump for the saline was turned off. After incubation, the bladder was emptied of any medicament solution, then the infusion pump was turned on again.

The mark [1] stands for this setting: in DMSO, read-out: pEC50 DMSO (pEC50 values for TPVR1) (converted).
Where [2] appears, read: in methanol, read-out: pEC50 methanol (pEC50 values for TPVR1) (converted).

Read-outs that look alike come from different tables or passages of the source.

T1 sequence (Q8NER1 whole entry): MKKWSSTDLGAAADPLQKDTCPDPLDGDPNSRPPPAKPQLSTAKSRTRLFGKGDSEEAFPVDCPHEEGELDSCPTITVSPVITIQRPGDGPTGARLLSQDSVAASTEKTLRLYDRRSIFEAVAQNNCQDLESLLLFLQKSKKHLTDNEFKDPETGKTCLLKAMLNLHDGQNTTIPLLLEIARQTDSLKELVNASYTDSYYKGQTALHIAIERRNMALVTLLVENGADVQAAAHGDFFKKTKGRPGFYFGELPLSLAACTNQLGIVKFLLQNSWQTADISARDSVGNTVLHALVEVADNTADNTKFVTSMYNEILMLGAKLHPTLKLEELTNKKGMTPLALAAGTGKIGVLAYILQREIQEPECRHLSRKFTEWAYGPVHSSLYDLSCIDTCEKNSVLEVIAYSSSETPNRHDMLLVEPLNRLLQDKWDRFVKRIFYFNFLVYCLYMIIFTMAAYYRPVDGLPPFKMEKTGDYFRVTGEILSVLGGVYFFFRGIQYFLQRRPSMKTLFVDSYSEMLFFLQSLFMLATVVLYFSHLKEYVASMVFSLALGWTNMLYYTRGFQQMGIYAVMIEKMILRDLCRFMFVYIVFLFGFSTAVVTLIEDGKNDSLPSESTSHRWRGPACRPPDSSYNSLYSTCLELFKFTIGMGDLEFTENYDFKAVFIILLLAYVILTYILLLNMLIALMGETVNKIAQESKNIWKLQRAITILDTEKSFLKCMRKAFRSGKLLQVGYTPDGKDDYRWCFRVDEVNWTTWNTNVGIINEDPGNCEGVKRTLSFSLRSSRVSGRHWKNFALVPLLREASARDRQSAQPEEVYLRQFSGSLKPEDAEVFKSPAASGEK

On to `CCCCCC[C@H](C/C=C\CCCCCCCC(=O)NCc1ccc(O)c(OC)c1)OC(C)=O`, for which, on human TRPV1 (setting [1]), the EC50 was 0.501 nM. Also, the “pEC50 methanol (pEC50 values for TPVR1)” value at human TRPV1 (in methanol) amounted to 9.40 ± 0.18.

On to `CCCCCC[C@H](C/C=C\CCCCCCCC(=O)NCc1ccc(O)c(OC)c1)OC(=O)c1ccccc1` [Compound of example 9, 12-Benzoyl Rinvanil], for which the EC50 on human TRPV1 (setting [1]) was 0.129 nM; on human TRPV1 (setting [2]), 0.288 nM.

For `C=C(C)[C@]12C[C@@H](C)[C@@]34O[C@](Cc5ccccc5)(O[C@@H]1[C@@H]3C=C(COC(=O)Cc1ccc(O)c(OC)c1)C[C@]1(O)C(=O)C(C)=C[C@@H]41)O2` [Resiniferotoxin, resiniferotoxin, reference compound], in the test with Sprague Dawley rats, the “N^o of minctions per hour” value is 17 ± 2 per hour and the “number of minctions per hour, result in words” value is listed as “remained similar to that of non-operated animals”.

For `CCCCCC[C@H](C/C=C\CCCCCCCC(=O)NCc1ccc(O)c(OC)c1)OC(=O)Cc1ccccc1` [Compound of example 2, 12-Phenylacetyl Rinvanil], in the test with Sprague Dawley rats, the “N^o of minctions per hour” value stood at 19 ± 2 per hour and the “number of minctions per hour, result in words” value is given as “remained similar to that of non-operated animals”. The EC50 at human TRPV1 (pEC50 DMSO (pEC50 values for TPVR1), in DMSO) is 0.102 nM. Besides, the EC50 on human TRPV1 (pEC50 methanol (pEC50 values for TPVR1), in methanol) was 0.0661 nM.

On to `CCCCCC[C@H](CC1CC1CCCCCCCC(=O)NCc1ccc(O)c(OC)c1)OC(=O)Cc1ccccc1` (some centres unmarked) [Compound of example 12, 9,10-Methylen-12-Phenylacetyl Rinvanil I], for which the EC50 was 0.12 nM at human TRPV1 (setting [1]) and 0.158 nM at human TRPV1 (setting [2]).

On to `CCCCCC[C@H](CC1OC1CCCCCCCC(=O)NCc1ccc(O)c(OC)c1)OC(=O)Cc1ccccc1` (some centres unmarked) [Compound of example 15, 9,10-Epoxy-12-Phenylacetyl Rinvanil], for which the EC50 on human TRPV1 (setting [1]) is 5.37 nM; at human TRPV1 (setting [2]), 4.07 nM.
